Values of other authors in US11229596B2, “Preservative free pharmaceutical ophthalmic compositions” (PHARMATHEN S.A., priority 2016, dated 2022).
Structures can show the parent of a compound that is named as a salt. Where two headings read alike, the source gives them in different places.

Assays:
intraocular pressure = conditions: in man

| Solubility (in chloroform) | Solubility (in cyclohexane) | Solubility (in ethanol) | Solubility (in ether) | Solubility (in methanol) | Solubility (in propylene glycol) | Solubility (in water) | Solubility (in acetonitrile) | Structure (SMILES) | Duration of pressure reduction (intraocular pressure) | Start of reduction of the intraocular pressure after administration (intraocular pressure) | Time to maximum effect on intraocular pressure (intraocular pressure) |
| --- | --- | --- | --- | --- | --- | --- | --- | --- | --- | --- | --- |
| sparingly soluble | insoluble | soluble | insoluble | soluble | sparingly soluble | soluble |  | CC(C)(C)NC[C@H](O)COc1nsnc1N1CCOCC1 [Timolol maleate] |  |  |  |
|  |  | freely soluble |  |  |  | practically insoluble | very soluble | CC(C)OC(=O)CCC/C=C\C[C@@H]1[C@@H](CC[C@@H](O)CCc2ccccc2)[C@H](O)C[C@@H]1O [Latanoprost] | at least 24 hours | three to four | eight to twelve |
